Data reported in patent EP0417790B1, “S-triazolo[3,4-i]purine derivatives” (Kyowa Hakko Kogyo Co., Ltd., priority 1989, dated 1991).
Read-outs that look alike come from different tables or passages of the source.

Assays:
Wistar male rats = assay: Diuretic activity; format: in vivo; settings: Rattus norvegicus, po, 25 mg/kg orally, urine taken for 6 hours
Experimental: Wistar male rats weighing 150 to 300 g were used after fasting for 18 hours. […] The test was performed using 3 groups per test compound, and each group consists of 3 animals. The urine was metered by a measuring cylinder and electrolytes (Na^+ and K^+) in the urine were analyzed by flame photometer (model […]: Hitachi Ltd.). Parameters in Table 3 are represented by relative value for control.

trachea = assay: Passive Schultz-Dale reaction (broncho-dilatory effect) on isolated tracheal strips; settings: Cavia porcellus; 50% relaxation of antigen (EWA, 1 µg/ml)-contracted tracheal strips of passively sensitized guinea pigs
Experimental: Guinea pigs were passively sensitized as follows. Hartley male guinea pigs weighing 350 to 500 g were injected intraperitoneally with rabbit anti-egg albumin (EWA) serum prepared by the method of Koda et al. [Folia pharmacol., Japon 66, 237, (1970)]. After 24 hours, the guinea pigs were stunned and exsanguinated, and then trachea was excised. The zig-zag strips of the trachea were prepared by the method of Emmerson and Mackay [J. Pharm. Pharmacol., 31, 798, (1979)]. The strips were suspended in Krebs-Henseleit solution at 37°C under aeration of a mixed gas of 95% oxygen and 5% carbon dioxide, and incubated for one hour. Antigen (EWA) was then introduced in the solution (final concentration; 1 µg/ml), and the contraction was measured by isotonictransducer (TD-112s, made by Nihon Kohden K.K., Japan) and recorded on a recorder (Type 3066, made by Yokogawa-Hokushin Denki, K.K. Japan). After the contraction curves reached plateau the compounds were successively added in order to get cumulative concentration-relaxation curves. Concentration of 50% relaxation rate (IC50) was calculated from the regression line, which was obtained from cumulative concentration-relaxation curves.

male dd-mice = assay: Acute toxicity; format: in vivo; settings: Minimum lethal dose, oral, mortality observed for seven days
Experimental: The compounds were orally administrated to male dd-mice weighing 20 ± 1 g. Minimum lethal dose (MLD) was determined by observing the mortality for seven days after the administration.

male dd mice = assay: Inhibition of platelet activating factor (PAF)-induced mortality; format: in vivo; settings: Mus musculus, minimum effective dose, oral, 1 hour before 40 µg/kg PAF i.v., mortality 2 hours after PAF, read-out: PAF-induced mortality MED
Experimental: The experiment was performed by a minor modification of method of Carlson et al. [Agents and Actions, 21, 379 (1987)]. Groups each consisting of 10 male dd mice (weighing 28 to 32 g) were used, and 100 mg/kg of test compound or a saline (control) was orally administrated. One hour after the administration of test compound, 40 µg/kg of PAF (manufactured by Avanti Polar Lipids Co., Ltd.) was intravenously administered. Two hours after PAF injection, the mortality rate of the animals was observed. […]

Hartley male guinea pigs = assay: Experimental asthma (collapse time after antigen aerosol); format: in vivo; settings: 50 mg/kg orally, 1 hour before 1.5% EWA aerosol; n=3-10 mean±S.E.M.; control 254 ± 18
Experimental: Guinea pigs were passively sensitized as follows. Hartley male guinea pigs weighing 350 to 500 g were intraperitoneally injected with 1 ml of rabbit anti-egg alubmin (EWA) serum prepared by the method of Koda et al. [Folia pharmacol., Japon, 66, 237 (1970)]. The animals were treated with intraperitoneal injection of diphenhydramine (20 mg/kg) and propranolol (5 mg/kg), 30 minutes before administration of test compounds. 17 hours after the sensitization, the test compounds (50 mg/kg or 5 mg/kg) or saline (control) were orally administrated to sensitized animals. After one hour from the administration of the test compounds, the guinea pigs were placed in plastic observation box and were exposed to an aerosal antigen of 1.5% EWA.
The time until the onset of respiratory distress-like symptom [collapse time (second)] was measured as a result of experimental asthma.

mice = assay: Scopolamine-induced amnesia, step through passive avoidance; format: in vivo; settings: scopolamine 0.5 mg/kg i.p., mean ± S.E.M., controls 40.9±8.1 (Compound 41), 37.0±6.2 (Compound 51)
Experimental: Acquisition trial was performed in a manner similar to Experiment (f). Amnestic treatment was performed by intraperitoneal administration of scopolamine (0.5 mg/kg), 30 minutes prior to the acquisition trial. The test trial was performed 24 hours after the acquisition trial and its latency was determined as in Experiment (f).
Preparation of administrated test compound was performed in a manner similar to Experiment (f). Test compound and the saline were orally administered 60 minutes before the acquisition trial, respectively.

Male ddy mice = assay: Electroconvulsive shock (ECS)-induced amnesia, step through passive avoidance; format: in vivo; settings: mean ± S.E.M., control 70.9±13.5
Experimental: Male ddy mice (weighing 23 to 29 g) were used and each group consists of 14 to 15 animals. These tests were performed with a step through type passive avoidance apparatus. As experimental apparatus, two rooms (bright and dark) with automatic management system were used. An experimental apparatus is composed of a bright room equipped with 4W of fluorescent light (15 x 9 x 11 cm) and a dark room (15 x 14 x 18 cm), the two rooms are separated by a guillotine door of 3 x 3 cm. The floor of both rooms is stainless steal grid floor and the weak electric current can be send the grid floor of dark room. In the automatic management system, latency of acquisition trial and test trial are measured automatically by controlling with a controller (TK-402, by UNICOM, Japan).
The test compound was dissolved in saline and saline was used as a control. The test compound and the saline (control) were orally administered 60 minutes before the acquisition trial, respectively.
Acquisition trial for learning was performed as follows. […] As soon as the mouse entered the dark room, a scrambled foot-shock (0.18 mA) was delivered to the floor grid for 2 seconds. In the test trial, given 24 hours after the acquisition trial, the animal was again placed in the bright room and the response latency to enter the dark room was measured. The mice which required over 60 seconds to move from the bright room into the dark room were excluded from the test trial. Immediately after the acquisition trial, electric convulsive shock (ECS) (25 mA, 0.2 second, 2000 V) was loaded on mice. The test trial was performed 24 hours after the ECS treatment as follows. The mice received the acquisition trial were placed in the bright room and, latency from the door opening to the entrance of the whole body of animal into the dark room was measured. The maximum measurement time was 600 seconds and latency exceeding 600 seconds was recorded as 600 seconds.
Statistical significance between the control group and test compound treated group was judged by Man Whitney U-test.

[1] = relative value for control (1.00), read-out: Na^+/K^+
[2] = relative value for control (100), read-out: Excretion of K^+
[3] = relative value for control (100), read-out: Excretion of Na^+
[4] = relative value for control (100), read-out: Urine volume
[5] = 0.625 mg/kg orally 60 minutes before acquisition trial
[6] = 2.5 mg/kg orally 60 minutes before acquisition trial
[7] = 10 mg/kg orally 60 minutes before acquisition trial
[8] = 40 mg/kg orally 60 minutes before acquisition trial

SMILES: CCCn1c(=O)n2c(-c3ccncc3)nnc2c2[nH]cnc21 [Compound 31, 6,9-Dihydro-6-n-propyl-3-(4-pyridyl)-5H-1,2,4-triazolo[3,4-i]purin-5-one]
- response vs control in vivo at 25 mg/kg (Wistar male rats; [1]): 166%
- response vs control in vivo at 25 mg/kg (Wistar male rats; [2]): 118%
- response vs control in vivo at 25 mg/kg (Wistar male rats; [3]): 196%
- response vs control in vivo at 25 mg/kg (Wistar male rats; [4]): 191%
- IC50 (trachea): 11 µM
- MLD (male dd-mice): >300 mg/kg
- minimal effective dose (male dd mice): 25 mg/kg
- Experimental asthma Collapse time (Hartley male guinea pigs): 512 ± 52 s

SMILES: CCCCn1c(=O)n2c(-c3ccncc3)nnc2c2[nH]cnc21 [Compound 38, 6-n-Butyl-6,9-dihydro-3-(4-pyridyl)-5H-1,2,4-triazolo-[3,4-i]purin-5-one]
- response vs control in vivo at 25 mg/kg (Wistar male rats; [1]): 163%
- response vs control in vivo at 25 mg/kg (Wistar male rats; [2]): 180%
- response vs control in vivo at 25 mg/kg (Wistar male rats; [3]): 293%
- response vs control in vivo at 25 mg/kg (Wistar male rats; [4]): 353%
- IC50 (trachea): > 40 µM
- MLD (male dd-mice): >300 mg/kg
- minimal effective dose (male dd mice): 25 mg/kg
- Experimental asthma Collapse time (Hartley male guinea pigs): 401 ± 78 s

SMILES: CCCn1c(=O)n2c(=O)[nH]nc2c2c1ncn2C [Compound 41, 9-Methyl-6-n-propyl-2,5,6,9-tetrahydro-3H-1,2,4-triazolo[3,4-i]purin-3,5-dione]
- Latency of test trial (mice; [5]): 96.8 ± 21.5 s
- Latency of test trial (mice; [6]): 115.8 ± 26.6 s
- Latency of test trial (mice; [7]): 53.4 ± 8.9 s
- Latency of test trial (mice; [8]): 74.3 ± 18.8 s
- MLD (male dd-mice): >300 mg/kg
- Latency of test trial (Male ddy mice; [5]): 105.9 ± 44.0 s
- Latency of test trial (Male ddy mice; [6]): 111.3 ± 20.1 s
- Latency of test trial (Male ddy mice; [7]): 97.4 ± 38.7 s
- Latency of test trial (Male ddy mice; [8]): 171.8 ± 43.1 s
